Assay [1] addresses T1, sEH (Homo sapiens, UniProt P34913).
T1 construct: purchased Cayman 10011669
T1 sequence (P34913 1-555): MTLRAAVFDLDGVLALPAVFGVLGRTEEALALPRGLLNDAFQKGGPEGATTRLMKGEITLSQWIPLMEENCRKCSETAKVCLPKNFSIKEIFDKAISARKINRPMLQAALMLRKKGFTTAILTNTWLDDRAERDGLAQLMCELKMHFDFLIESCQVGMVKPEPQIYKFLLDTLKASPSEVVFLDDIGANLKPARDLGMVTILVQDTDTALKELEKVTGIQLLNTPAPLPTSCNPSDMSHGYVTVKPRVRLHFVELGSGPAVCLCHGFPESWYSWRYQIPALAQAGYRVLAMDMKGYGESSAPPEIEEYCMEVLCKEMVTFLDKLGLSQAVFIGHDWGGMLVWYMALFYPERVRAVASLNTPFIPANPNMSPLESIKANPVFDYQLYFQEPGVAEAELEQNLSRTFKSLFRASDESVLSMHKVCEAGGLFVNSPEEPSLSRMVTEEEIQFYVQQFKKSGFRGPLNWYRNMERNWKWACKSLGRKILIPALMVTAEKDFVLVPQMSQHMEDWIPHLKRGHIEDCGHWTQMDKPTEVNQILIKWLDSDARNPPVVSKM
Nature of the assay: sEH inhibitory activity assay (fluorometric, PHOME substrate). The class given is biochemical. To be noted: for IC50: PHOME substrate, triplicate, mean ± SD; for inhibition at 100 µM: read-out: sEH inhibitory activity. The method, then:
The tests were conducted using a multi plate system of the fluorometric photometer at excitation and emission wavelengths of 330 and 465 nm, respectively. […] To identify potential inhibitors of sEH, all compounds were measured at 100 µM concentration.
(§1) The inhibitory activities on the sEH were measured according to the modified methods in previous papers. PHOME was used as a substrate to examine the inhibitions of sEH, which was determined using a hydrolysis reaction of PHOME. sEH was diluted in Bis Tris–HCl buffer (25 mM containing 0.1 mg/mL BSA, pH 7.0) at 12.15 ng/mL. In a 96-well plate, 130 μL of recombinant human sEH, 20 μL of sample, and 50 μL of 40 mM PHOME were added. The absorbance was measured at excitation filter 330 nm and emission filter 465 nm for 30 min at an interval of 30 s after adding the last solution in a 96-well plate. All assays were performed in triplicate, using microplate reader (Tecan infinite F200, Grödig, Austria). Inhibitory activity (%) was calculated using the following equation:(1) Inhibitory Activity (%)=100−[Δsample / Δcontrol]×100 where Δcontrol and Δsample are the changed fluorescence […], respectively.
The enzyme inhibition parameter IC50 was calculated by fitting hyperbola equations to the data using nonlinear regression of the plot using Sigma Plot (SPP Inc., Chicago, IL, USA.). The experimental results were performed in triplicate, and presented as the means ± SD.

In assay [2] the target is T1, sEH. Details: method as in PMID 26548595, PMID 32972033, doi:10.1039/C6RA04207D. To be noted: earlier reports; cited from earlier work.
The target in assay [3] is T1, sEH. Nature of the assay: Enzyme kinetics on sEH (Lineweaver–Burk and Dixon plots). The format is biochemical. To be noted: for Ki: Dixon plot; for sEH inhibition Type: Lineweaver–Burk plots, various substrate concentrations. The method, then:
The enzymatic kinetics of these compounds (7–10) were determined by calculating the initial velocity of each inhibitor at various substrate concentrations (0.19–5 mM) (Figure 2). […] This mixed type had bound to allosteric sites, a site different from the active site. In addition, the inhibitory constant values (Ki) were calculated using the Dixon plot revised from the Lineweaver–Burk plot.
as §1

The text below walks through data of article PMC7917821, “In Vitro and In Silico Studies of Soluble Epoxide Hydrolase Inhibitors from the Roots of Lycopus lucidus” (Plants, 2021).

Where two headings read alike, the source gives them in different places.

On to `C=C(C)[C@@H]1CC[C@]2(C(=O)O)CC[C@]3(C)[C@H](CC[C@@H]4[C@@]5(C)CC[C@H](O)C(C)(C)[C@@H]5CC[C@]43C)[C@@H]12` [Compound 1, betulinic acid], for which, at sEH [1], half-maximal inhibition (IC50) required 67.8 ± 3.2 µM and the inhibition at 100 µM is above 50%. In addition, at sEH [2], the “sEH inhibitory activity previously shown” value was “significant sEH inhibitory activity”.

As for `COC(=O)[C@H]1c2c(/C=C/C(=O)O[C@H](Cc3ccc(O)c(O)c3)C(=O)O)ccc(O)c2O[C@@H]1c1ccc(O)c(O)c1` [Compound 10, 9″″-methyl lithospermate], at sEH [3], the inhibition constant Ki is 7.6 µM and the “sEH inhibition Type” value is on record as “competitive inhibitors”. This compound showed an IC50 at sEH [1] of 35.7 ± 2.1 µM. For the same compound, at sEH [1] (at 100 µM concentration), the inhibition at 100 µM was above 50%.

For the compound `COC(=O)[C@@H](Cc1ccc(O)c(O)c1)OC(=O)/C=C/c1ccc(O)c2c1[C@H](C(=O)OC)[C@@H](c1ccc(O)c(O)c1)O2` [Compound 9, dimethyl lithospermate], on sEH [3], the Ki amounted to 1.9 µM and the “sEH inhibition Type” value is “competitive inhibitors”. This compound also displayed an IC50 against sEH [1] of 10.6 ± 3.2 µM. Further, the inhibition at 100 µM on sEH [1] (at 100 µM concentration) was above 50%.

As for `COC(=O)[C@H](O)Cc1ccc(O)cc1` [Compound 6, latifolicinin C], the midpoint of inhibition against sEH [1], the IC50, lay at 52 ± 1.9 µM. On sEH [1] (at 100 µM concentration), the inhibition at 100 µM was above 50%.

Take `COC(=O)[C@@H](Cc1ccc(O)c(O)c1)OC(=O)/C=C/c1ccc(O)c(O)c1` [Compound 7, methyl rosmarinate]: at sEH [3], the affinity corresponds to a Ki of 9.2 µM and the “sEH inhibition Type” value is recorded as “competitive inhibitors”. This compound also came in with a 50% inhibitory concentration (IC50) at sEH [1] of 16.8 ± 0.6 µM. Further, at sEH [1] (at 100 µM concentration), the inhibition at 100 µM was above 50%.

As for `C[C@H]1[C@H](C)CC[C@]2(C(=O)O)CC[C@]3(C)C(=CC[C@@H]4[C@@]5(C)CC[C@H](O)C(C)(C)[C@@H]5CC[C@]43C)[C@H]12` [Compound 3, ursolic acid], the midpoint of inhibition against sEH [1], the IC50, lay at 42.1 ± 4 µM. Further, the inhibition at 100 µM on sEH [1] (at 100 µM concentration) is above 50%. Moreover, the “sEH inhibitory activity previously shown” value at sEH [2] is listed as “significant sEH inhibitory activity”.

Regarding `COc1ccc(CCO[C@@H]2O[C@H](CO)[C@@H](OC(=O)/C=C/c3ccc(O)c(OC)c3)[C@H](O[C@@H]3O[C@@H](C)[C@H](O)[C@@H](O)[C@H]3O)[C@H]2O)cc1O` [Compound 8, martynoside], on sEH [3], the affinity corresponds to a Ki of 5.7 µM and the “sEH inhibition Type” value is recorded as “mixed type inhibitor”. The concentration for half-maximal inhibition (IC50) at sEH [1] was 19.5 ± 4.1 µM. The inhibition at 100 µM on sEH [1] (at 100 µM concentration) is above 50%. In addition, the “sEH inhibitory activity previously shown” value at sEH [2] is “significant sEH inhibitory activity”.
